According to patent US20240174596A1 (Northwestern University, priority 2021, published 2024):
Counter-ions that a name gives are not always drawn. Like-named read-outs stand apart in the source and are kept apart here. Marks after values point to notes of the source that are not given here. Values belong to the molecule of their own block, whether it stands above or below them.

Tests used:
[1] = test system: alanine aminotransferase (Ala-AT); conditions: up to 4 mM; cited from earlier work
hOAT [2] = target: T1, hOAT (Homo sapiens, UniProt P04181); assay: Time-dependent inactivation of hOAT; type: biochemical; conditions: for kinact/KI: inactivation efficiency; for KI (inactivator concentration for half-maximal inactivation): inhibitor concentration for half-maximal inactivation; for KI (inactivator concentration for half-maximal inactivation) / kinact: mean and standard error
T1 construct: made in house; host or cells: E. coli BL21(DE3)
T1 sequence (P04181 26-439): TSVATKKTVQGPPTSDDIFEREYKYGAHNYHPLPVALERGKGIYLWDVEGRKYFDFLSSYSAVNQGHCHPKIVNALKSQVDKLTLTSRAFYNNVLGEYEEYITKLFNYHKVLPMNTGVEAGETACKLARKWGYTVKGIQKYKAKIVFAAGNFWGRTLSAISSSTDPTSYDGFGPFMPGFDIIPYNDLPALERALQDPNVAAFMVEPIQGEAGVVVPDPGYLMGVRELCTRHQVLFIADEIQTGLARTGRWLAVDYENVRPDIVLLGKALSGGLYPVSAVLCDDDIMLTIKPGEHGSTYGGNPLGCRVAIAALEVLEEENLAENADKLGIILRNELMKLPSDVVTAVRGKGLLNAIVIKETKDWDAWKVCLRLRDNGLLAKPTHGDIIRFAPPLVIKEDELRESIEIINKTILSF
Description: (§1) All reagents for enzyme purification and assays were purchased from Sigma-Aldrich (St. Louis, MO, USA). Human OAT (0.672 mg/mL) was purified from E. coli BL21 (DE3) cells following the procedure described above, and coenzyme human recombinant pyrroline 5-carboxylate reductase (PYCRI) were expressed, grown, and purified according to a literature procedure.^4 γ-Aminobutyric acid aminotransferase (GABA-AT, 0.4 mg/mL) was purified from pig brain following a procedure described previously^5, and coenzyme succinic semialdehyde dehydrogenase (SSDH) was purified from GABase (catalog No. G7509-25UN, Sigma-Aldrich), a commercially available mixture of SSDH and GABA-AT, using a known procedure.^6 Commercially available L-aspartate aminotransferase (Asp-AT) from the porcine heart (catalog No. G2751-2KU, Sigma-Aldrich) and the desired assay coenzyme malic dehydrogenase from porcine (catalog No. M2634-5KU, Sigma-Aldrich), and L-alanine aminotransferase (Ala-AT) from the porcine heart (catalog No. G8255-200UN, Sigma-Aldrich) and the desired assay coenzyme lactate dehydrogenase from porcine (catalog No. 427211-50KU, Sigma-Aldrich) were used directly without further purification. All the enzyme assays for the inactivation, partition ratio, and dialysis experiment were recorded on a Synergy H1 hybrid multimode microplate reader (Biotek, USA) with transparent 96-well plates.
Time-dependent inactivation against hOAT was performed using an optimized procedure published previously.^7 10 μL of hOAT (0.025 mg/mL) was preincubated with 10 μL of various concentrations of tested compounds in 100 mM potassium pyrophosphate buffer (pH 8.0, 5 mM α-ketoglutarate, and 5 mM β-mercaptoethanol) at 25° C. in a 96-well plate. At time intervals, 80 μL of assay solution containing PYCR^1 (0.5 μg), 1 mM NADH, and 25 mM L-ornithine in the abovementioned potassium pyrophosphate buffer were added to the incubation mixture and assayed for OAT activity at 37° C. for 30 min. The change in UV absorbance at 340 nm at 37° C. based on the conversion of NADH to NAD was monitored by a microplate reader. All assays were performed in duplicate, and the remaining OAT activity at each preincubation time at each inhibitor concentration was averaged. The natural logarithm of the percentage of the remaining OAT activity was plotted against the preincubation time at each inhibitor concentration to obtain the kobs (slope) value for each concentration. The kobs value is the rate constant describing the inactivation at each inhibitor concentration. kobs is replotted against the inhibitor concentration using nonlinear regression analysis using GraphPad Prism 8.0. K1 and kinact values were estimated from equation (1)
where kinact is the maximal rate of inactivation, K1 is the inhibitor concentration required for half-maximal inactivation, and [I] is the preincubation concentration of the tested compound.

hOAT [3] = target: T1, hOAT; conditions: data extracted from Reference 9; cited from earlier work
GABA-AT [4] = target: T2, GABA-AT (Sus scrofa, UniProt P80147); assay: Reversible inhibition of GABA-AT (coupled assay with SSDH); type: biochemical, pig; set-up: was purified from pig brain following a procedure described previously; from tissue; host or cells: pig brain; conditions: for Ki: Ki = IC50/(1 + [S]/Km), 9-point assay
T2 sequence (P80147 29-500): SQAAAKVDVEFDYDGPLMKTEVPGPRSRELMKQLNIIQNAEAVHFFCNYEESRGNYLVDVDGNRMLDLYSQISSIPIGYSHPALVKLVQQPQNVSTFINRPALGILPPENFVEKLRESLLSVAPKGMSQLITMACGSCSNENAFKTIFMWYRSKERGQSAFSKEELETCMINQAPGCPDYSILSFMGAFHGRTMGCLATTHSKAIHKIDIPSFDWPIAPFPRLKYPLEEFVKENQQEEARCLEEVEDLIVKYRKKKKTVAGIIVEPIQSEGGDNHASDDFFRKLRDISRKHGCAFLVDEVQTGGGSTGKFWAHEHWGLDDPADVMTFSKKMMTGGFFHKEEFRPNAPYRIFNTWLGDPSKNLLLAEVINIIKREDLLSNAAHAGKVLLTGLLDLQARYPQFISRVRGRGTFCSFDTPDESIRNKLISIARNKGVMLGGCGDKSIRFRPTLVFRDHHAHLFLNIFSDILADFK
Description: as §1
96-well plates were loaded with 80 μL of an assay mixture containing excess SSDH, 1 mM NADP^+, 11.1 mM GABA, and 10 μL of various concentrations of the tested compounds in 50 mM potassium pyrophosphate buffer (pH 8.5, 5 mM α-ketoglutarate, and 5 mM β-mercaptoethanol). […] The microplate was shaken at 25° C. for 1 min, and the remaining enzyme activity was determined by observing the change in absorbance at 340 nm at 25° C. based on the conversion of NADP^+ to NADPH. […] Subsequent Ki values were determined using equation (2) All assays were performed in duplicate.

hOAT [5] = target: T1, hOAT; conditions: data extracted from Reference 9; cited from earlier work; remark: listed apart in the source
[6] = test system: aspartate aminotransferase (Asp-AT); conditions: up to 4 mM; cited from earlier work
HCC mouse model = conditions: 0.1 and 1.0 mg/kg; PO; cited from earlier work
hOAT [7] = target: T1, hOAT; assay: Fluoride ion release assay; type: biochemical; conditions: without α-KG; triplicate, mean with standard deviation
Description: The fluoride ion release assay was conducted using previous protocols.^10 The final concentration of enzyme in the sample was determined via BCA protein assay kit (Pierce, cat: 23225). A calibration curve of voltage (V, mV) was generated from varying concentrations of NaF (F, μM). For accurate detection of fluoride ion concentration, 10 μM of fluoride ion was added to each control and sample The number of fluoride ions released per active site was calculated by the ratio of the fluoride ion release concentration and enzyme concentration.

hOAT [8] = target: T1, hOAT; assay: Partition ratio experiment (titration of hOAT); type: biochemical; conditions: in the presence of α-KG
Description: FIG. 9. Titration of hOAT with SS-1-148. The loss of enzyme activity was measured as a function of the ratio of […] to enzyme concentration. Linear regression was used on the linear portion of the curves to obtain the X-intercept, which was the turnover number (partition ratio=turnover number−1).
The partition ratio was calculated using previous protocols.^8-10

GABA-AT [9] = target: T2, GABA-AT; conditions: literature, cited from earlier work
hOAT [10] = target: T1, hOAT; conditions: literature; cited from earlier work

kinact/KI (hOAT [2]): 16.7 M⁻¹ s⁻¹
KI (inactivator concentration for half-maximal inactivation) (hOAT [2]): 90 ± 30 µM
kinact (hOAT [2]): 0.0015 s⁻¹
Ki (GABA-AT [4]): 5160 µM
SMILES: N[C@H]1C[C@@H](C(=O)O)CC1=C(C(F)(F)F)C(F)(F)F [BCF3, (1S,3S)-3-Amino-4-(hexafluoropropan-2-ylidenyl)-cyclopentane-1-carboxylic Acid]
inhibition on alanine aminotransferase (Ala-AT) [1]: no inhibition
Partition ratio (hOAT [3]): 12^b
Fluoride ion release (hOAT [5]): 79^b
inhibition on aspartate aminotransferase (Asp-AT) [6]: no inhibition
serum AFP levels (HCC mouse model): remarkably decreased
tumor growth (HCC mouse model): inhibited tumor growth

Fluoride ion release (hOAT [7]): 3395± 31
SMILES: N[C@H]1C[C@@H](C(=O)O)CC1(F)F [Compound 4, (1R,4S)-4-Amino-3,3-difluorocyclopentanecarboxylic acid hydrochloric acid salt, reference compound]

Partition ratio (hOAT [8]): 817
kinact/KI (hOAT [2]): 0.233 M⁻¹ s⁻¹
KI (inactivator concentration for half-maximal inactivation) (hOAT [2]): 2130 ± 900 µM
kinact (hOAT [2]): 0.0005 s⁻¹
inhibitory activity against GABA-AT weaker than cyclopentane-based 4 (GABA-AT [4]): about 10 times
Ki (GABA-AT [4]): 1340 µM
Fluoride ion release (hOAT [7]): 754 ± 57
SMILES: N[C@H]1CC(C(=O)O)=CC1(F)F [Compound 5, (S)-4-Amino-3,3-difluorocyclopent-1-enecarboxylic acid]

SMILES: N[C@H]1C=C(C(=O)O)CCC1(F)F [WZ-2-051, (S)-3-amino-4,4-difluorocyclohex-1-enecarboxylic acid]
selectivity over GABA-AT (GABA-AT [9]; hOAT over GABA-AT): 13.3 fold
type of inhibition on GABA-AT (GABA-AT [9]): apparent irresponsible inhibition
improvement in inactivation efficiency (kinact/K1 ratio) against hOAT compared to BCF3 (hOAT [10]): 23 fold
